Measured values as given in US20060116390A1, “Hepatitis c virus inhibitors” (priority 2003, published 2006).
Structures can show the parent of a compound that is named as a salt. Where two headings read alike, the source gives them in different places.

System: HCV proteins in Rep5.1 cells (replicon cell line)
Experiment: Inhibitory activity of HCV: cell-based ELISA in replicon cell line Rep5.1 (decrease of HCV proteins)
Set-up: species or system hepatitis C virus
Summary of the method: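 Rep5.1 replicon cells (5000/well, DMEM-10 with 500 μg/ml G418) were given serially diluted drug 4 h after seeding. After 72 h, cells were fixed in methanol/acetone and HCV proteins detected by cell-based ELISA using replicon-specific patient plasma antibodies. IC50 is the concentration giving 50% protein decrease versus the no-drug control.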

[1] = Hepatitis C virus, 72 h, Rep5.1 cells, 72 hours with drug, concentration at which 50% of HCV proteins was decreased, Table 2, read-out: IC50
[2] = Hepatitis C virus, 72 h, Rep5.1 cells, 72 hours with drug, decrease of HCV proteins measured by HCV antibody, Table 1, read-out: Level (IC50 values classified)
[3] = Rep5.1 cells, 72 hours with drug, concentration at which 50% of HCV proteins was decreased, Table 2, read-out: IC50

**Q.** CCOc1ccccc1CCOC(=O)C1=C(C)NC(=S)NC1CF (centres unmarked) [Compound 274, 4-fluoromethyl-6-methyl-2-thioxo-1,2,3,4-tetrahydro-pyrimidine-5-carboxylic acid 2-(2-ethoxy-phenyl)-ethyl ester] was tested. Which IC50 [1] did it give?
**A.** > 100 µM

**Q.** What about the IC50 [2] of the same molecule?
**A.** > 20 µM

**Q.** With CC1=C(C(=O)OCCCc2cc3ccccc3s2)C(CF)NC(=S)N1 (centres unmarked) [58′, 4-fluoromethyl-6-methyl-2-thioxo-1,2,3,4-tetrahydro-pyrimidine-5-carboxylic acid 3-benzo[b]thiophen-2-yl-propyl ester] as the molecule, how does the IC50 [1] read?
**A.** 8 µM

**Q.** And the IC50 [2]?
**A.** 1 to 10 µM

**Q.** How did the IC50 [1] turn out when CC1=C(C(=O)OCCc2csc([N+](=O)[O-])c2)CNC(=S)N1 [26′, 6-methyl-2-thioxo-1,2,3,4-tetrahydro-pyrimidine-5-carboxylic acid 2-(5-nitro-thiophen-3-yl)-ethyl ester] was run?
**A.** 0.9 µM

**Q.** What about the IC50 [2] of the same molecule?
**A.** < 1 µM

**Q.** What does the source list for CC1=C(C(=O)OCc2ccc(Cl)cc2Cl)CNC(=S)N1 [Compound 41, 6-methyl-2-thioxo-1,2,3,4-tetrahydro-pyrimidine-5-carboxylic acid 2,4-dichloro-benzyl ester]?
**A.** IC50 [1]: < 0.4 µM; IC50 [2]: < 1 µM

**Q.** How did the IC50 [1] turn out when CC1=C(C(=O)OCCc2cccc(C(F)(F)F)c2)C(COC(=O)C(C)N)NC(=S)N1 (centres unmarked) [73″, 4-(2-amino-propionyloxymethyl)-6-methyl-2-thioxo-1,2,3,4-tetrahydro-pyrimidine-5-carboxylic acid 2-(3-trifluoromethyl-phenyl)-ethyl ester] was run?
**A.** 0.4 µM

**Q.** And the IC50 [2]?
**A.** < 1 µM

**Q.** Which IC50 [1] does the source give for CC1=C(C(=O)OCCc2ccc(N(C)C)cc2)CNC(=S)N1 [Compound 95, 6-methyl-2-thioxo-1,2,3,4-tetrahydro-pyrimidine-5-carboxylic acid 2-(4-dimethylamino-phenyl)-ethyl ester] here?
**A.** 0.7 µM

**Q.** And the IC50 [2]?
**A.** < 1 µM

**Q.** With COc1ccccc1CCCOC(=O)C1=C(C)NC(=S)NC1 [Compound 104, 6-methyl-2-thioxo-1,2,3,4-tetrahydro-pyrimidine-5-carboxylic acid 3-(2-methoxy-phenyl)-propyl ester] as the molecule, how does the IC50 [1] read?
**A.** < 0.4 µM

**Q.** What about the IC50 [2] of the same molecule?
**A.** < 1 µM

**Q.** For CC1=C(C(=O)OCCc2ccsc2)C2(CCCC2)NC(=S)N1 [29′, 9-methyl-7-thioxo-6,8-diaza-spiro[4.5]dec-9-ene-10-carboxylic acid 2-thiophen-3-yl-ethyl ester], which IC50 [1] is on record?
**A.** 12 µM

**Q.** What about the IC50 [2] of the same molecule?
**A.** 10 to 20 µM

**Q.** How did the IC50 [1] turn out when CC1=C(C(=O)OCc2cc(C)cc(C)c2)CNC(=S)N1 [Compound 82, 6-methyl-2-thioxo-1,2,3,4-tetrahydro-pyrimidine-5-carboxylic acid 3,5-dimethyl-benzyl ester] was run?
**A.** 0.3 µM

**Q.** What about the IC50 [2] of the same molecule?
**A.** < 1 µM

**Q.** CC1=C(C(=O)OCC=Cc2ccco2)CNC(=S)N1 [Compound 251, 6-methyl-2-thioxo-1,2,3,4-tetrahydro-pyrimidine-5-carboxylic acid 3-furan-2-allyl ester] was tested. Which IC50 [3] did it give?
**A.** 1.6 µM

**Q.** C=CCOCC#CCOC(=O)C1=C(C)NC(=S)NC1 [Compound 245, 6-methyl-2-thioxo-1,2,3,4-tetrahydro-pyrimidine-5-carboxylic acid 4-allyloxy-but-2-inyl ester] was tested. Which IC50 [3] did it give?
**A.** 2.7 µM

**Q.** What does the source list for COc1ccc(Cl)cc1CCOC(=O)C1=C(C)NC(=S)NC1CF (centres unmarked) [84′, 4-fluoromethyl-6-methyl-2-thioxo-1,2,3,4-tetrahydro-pyrimidine-5-carboxylic acid 2-(5-chloro-2-methoxy-phenyl)-ethyl ester]?
**A.** IC50 [1]: 0.9 µM; IC50 [2]: < 1 µM

**Q.** Which results are given for CC1=C(C(=O)OCC2CC2)CNC(=S)N1 [Compound 46, 6-methyl-2-thioxo-1,2,3,4-tetrahydro-pyrimidine-5-carboxylic acid cyclopropylmethyl ester]?
**A.** IC50 [1]: 30 µM; IC50 [2]: 10 to 20 µM

**Q.** How did the IC50 [1] turn out when CC1=C(C(=O)OCCCc2ccccc2)C(CO)NC(=S)N1 (centres unmarked) [14″, 4-hydroxymethyl-6-methyl-2-thioxo-1,2,3,4-tetrahydro-pyrimidine-5-carboxylic acid 3-phenyl-propyl ester] was run?
**A.** 2.6 µM

**Q.** What about the IC50 [2] of the same molecule?
**A.** 1 to 10 µM

**Q.** For CC1=C(C(=O)OCCc2cccc(C(F)(F)F)c2)C(CO)NC(=S)N1 (centres unmarked) [38″, 4-hydroxymethyl-6-methyl-2-thioxo-1,2,3,4-tetrahydro-pyrimidine-5-carboxylic acid 2-(3-trifluoromethyl-phenyl)-ethyl ester], which IC50 [1] is on record?
**A.** < 0.4 µM

**Q.** And the IC50 [2]?
**A.** < 1 µM

**Q.** With COC1=C(C(=O)OCc2ccccc2)CNC(=S)N1 [Compound 63, 6-methoxy-2-thioxo-1,2,3,4-tetrahydro-pyrimidine-5-carboxylic acid benzyl ester] as the molecule, how does the IC50 [1] read?
**A.** > 100 µM

**Q.** And the IC50 [2]?
**A.** > 20 µM

**Q.** What does the source list for CC1=C(C(=O)OCn2nnc3ccccc32)CNC(=S)N1 [Compound 225, 6-methyl-2-thioxo-1,2,3,4-tetrahydro-pyrimidine-5-carboxylic acid benzotriazol-1-ylmethyl ester]?
**A.** IC50 [1]: > 100 µM; IC50 [2]: > 20 µM

**Q.** How did the IC50 (Hepatitis C virus, 72 h) turn out when CC1=C(C(=O)OCCc2cccc(Cl)c2)C(COC(=O)NCCN(C)C)NC(=S)N1 (centres unmarked) [86″, 4-(2-dimethylamino-ethylcarbamoyloxymethyl)-6-methyl-2-thioxo-1,2,3,4-tetrahydro-pyrimidine-5-carboxylic acid 2-(3-chloro-phenyl)-ethyl ester trifluoroacetate] was run?
**A.** 0.7 µM

**Q.** What about the IC50 (Hepatitis C virus, 72 h, read-out: Level (IC50 values classified)) of the same molecule?
**A.** < 1 µM

**Q.** Which IC50 [1] does the source give for CC1=C(C(=O)OCCc2csc([N+](=O)[O-])c2)C(CF)NC(=S)N1 (centres unmarked) [28′, 4-fluoromethyl-6-methyl-2-thioxo-1,2,3,4-tetrahydro-pyrimidine-5-carboxylic acid 2-(5-nitro-thiophen-3-yl)-ethyl ester] here?
**A.** 72 µM

**Q.** What about the IC50 [2] of the same molecule?
**A.** > 20 µM

**Q.** With COc1ccc(COC(=O)C2=C(C)NC(=S)NC2)cc1OC [Compound 40, 6-methyl-2-thioxo-1,2,3,4-tetrahydro-pyrimidine-5-carboxylic acid 3,4-dimethoxy-benzyl ester] as the molecule, how does the IC50 [1] read?
**A.** 92 µM

**Q.** What about the IC50 [2] of the same molecule?
**A.** > 20 µM

**Q.** Which IC50 [1] does the source give for CC1=C(C(=O)OCCc2cccc([N+](=O)[O-])c2)C(COC(=O)c2ccccc2)NC(=S)N1 (centres unmarked) [89″, 4-benzoyloxymethyl-6-methyl-2-thioxo-1,2,3,4-tetrahydro-pyrimidine-5-carboxylic acid 2-(3-nitro-phenyl)-ethyl ester] here?
**A.** 6.8 µM

**Q.** And the IC50 [2]?
**A.** 1 to 10 µM

**Q.** How did the IC50 [3] turn out when CC1=C(C(=O)O[C@H](C)c2ccccc2)CNC(=S)N1 (racemic) [Compound 26, 6-methyl-2-thioxo-1,2,3,4-tetrahydro-pyrimidine-5-carboxylic acid (R,S)-1-phenyl-ethyl ester] was run?
**A.** 3 µM

**Q.** How did the IC50 [1] turn out when CC1=C(C(=O)OCc2ccc(-c3cccs3)s2)C(CF)NC(=S)N1 (centres unmarked) [62′, 4-fluoromethyl-6-methyl-2-thioxo-1,2,3,4-tetrahydro-pyrimidine-5-carboxylic acid [2,2′]bithiophenyl-5-ylmethyl ester] was run?
**A.** 2 µM

**Q.** And the IC50 [2]?
**A.** 1 to 10 µM

**Q.** For CC1=C(C(=O)OCCc2c(F)c(F)c(F)c(F)c2F)C(CF)NC(=S)N1 (centres unmarked) [60′, 4-fluoromethyl-6-methyl-2-thioxo-1,2,3,4-tetrahydro-pyrimidine-5-carboxylic acid 2-pentafluorophenyl-ethyl ester], which IC50 [3] is on record?
**A.** 4 µM

**Q.** Which IC50 [1] does the source give for COc1cscc1CCOC(=O)C1=C(C)NC(=S)NC1 [40′, 6-methyl-2-thioxo-1,2,3,4-tetrahydro-pyrimidine-5-carboxylic acid 2-(4-methoxy-thiophen-3-yl)-ethyl ester] here?
**A.** 0.6 µM

**Q.** And the IC50 [2]?
**A.** < 1 µM

**Q.** Which results are given for CC1=C(C(=O)OCc2cc3c(C)snc3s2)CNC(=S)N1 [Compound 213, 6-methyl-2-thioxo-1,2,3,4-tetrahydro-pyrimidine-5-carboxylic acid 3-methyl-thieno[2,3-c]isothiazol-5-ylmethyl ester]?
**A.** IC50 [1]: 4 µM; IC50 [2]: 1 to 10 µM

**Q.** Which results are given for C=CCN(C)c1ccc(CCOC(=O)C2=C(C)NC(=S)NC2CO)cc1[N+](=O)[O-] (centres unmarked) [96″, 4-Hydroxymethyl-6-methyl-2-thioxo-1,2,3,4-tetrahydro-pyrimidine-5-carboxylic acid 2-[4-(allyl-methyl-amino)-3-nitro-phenyl]-ethyl ester]?
**A.** IC50 [1]: 0.9 µM; IC50 [2]: < 1 µM

**Q.** With CC1=C(C(=O)OCc2ccc(-c3ccccc3)cc2)CNC(=S)N1 [Compound 22, 6-methyl-2-thioxo-1,2,3,4-tetrahydro-pyrimidine-5-carboxylic acid biphenyl-4-ylmethyl ester] as the molecule, how does the IC50 [1] read?
**A.** 0.4 µM

**Q.** And the IC50 [2]?
**A.** < 1 µM

**Q.** With CC1=C(C(=O)OCCc2ccsc2F)CNC(=S)N1 [Compound 249, 6-methyl-2-thioxo-1,2,3,4-tetrahydro-pyrimidine-5-carboxylic acid 2-(2-fluoro-thiophen-3-yl)-ethyl ester] as the molecule, how does the IC50 [1] read?
**A.** < 0.4 µM

**Q.** What about the IC50 [2] of the same molecule?
**A.** < 1 µM

**Q.** Which IC50 [1] does the source give for CC1=C(C(=O)OCc2ccc(C)cc2)CNC(=S)N1 [Compound 89, 6-methyl-2-thioxo-1,2,3,4-tetrahydro-pyrimidine-5-carboxylic acid 4-methyl-benzyl ester] here?
**A.** 0.8 µM

**Q.** And the IC50 [2]?
**A.** < 1 µM

**Q.** With CC1=C(C(=O)OCCCc2ccsc2F)C(CO)NC(=S)N1 (centres unmarked) [13″, 4-hydroxymethyl-6-methyl-2-thioxo-1,2,3,4-tetrahydro-pyrimidine-5-carboxylic acid 3-(2-fluoro-thiophen-3-yl)-propyl ester] as the molecule, how does the IC50 [1] read?
**A.** 5.3 µM

**Q.** And the IC50 [2]?
**A.** 1 to 10 µM

**Q.** How did the IC50 [1] turn out when CC1=C(C(=O)OCc2ccc(F)cc2Cl)CNC(=S)N1 [Compound 70, 6-methyl-2-thioxo-1,2,3,4-tetrahydro-pyrimidine-5-carboxylic acid 2-chloro-4-fluoro-benzyl ester] was run?
**A.** < 0.5 µM

**Q.** And the IC50 [2]?
**A.** < 1 µM

**Q.** How did the IC50 [1] turn out when CC1=C(C(=O)OCCCc2ccsc2F)C(CF)NC(=S)N1 (centres unmarked) [52′, 4-fluoromethyl-6-methyl-2-thioxo-1,2,3,4-tetrahydro-pyrimidine-5-carboxylic acid 3-(2-fluoro-thiophen-3-yl)-propyl ester] was run?
**A.** 22 µM

**Q.** What about the IC50 [2] of the same molecule?
**A.** > 20 µM
